# Measurements published in ChEMBL document CHEMBL5154929, “Optimization of the Natural Product Calothrixin A to Discover Novel Dual Topoisomerase I and II Inhibitors with Improved Anticancer Activity” (J Med Chem, 2022).
# The source made the active and inactive calls. The calls are words filed in the database; no cut-off is given here.
# Legend:
# Calf thymus DNA = test: Binding affinity to calf thymus DNA assessed as intercalation by measuring hypochromic shift at 292 nm by […]; format: nucleic-acid assay; details: Bos taurus
# A-375 [1] = test: Induction of apoptosis in human A-375 cells assessed as […] at 20 to 80 nM measured after 24 hrs by Annexin V-FITC and DAPI staining based flow cytometric analysis; format: functional; details: dose 20-80 nM
# [2] = Volume of distribution in Kunming mouse plasma at 10 mg/kg, iv administered as single dose measured after 5 to 360 mins by HPLC analysis; format: ADME, organism-based; details: time 5-360 min
# [3] = AUC in Kunming mouse plasma at 10 mg/kg, iv administered as single dose measured after 5 to 360 mins by HPLC analysis; format: ADME, organism-based; set-up: time upper 360 min, time lower 5 min, dose 10 mg/kg, route iv
# MDA-MB-231 = test: Cytotoxicity against human MDA-MB-231 cells expressing high level of topoisomerase I/II measured after 72 hrs by MTT assay; format: functional, cell-based; details: MDA-MB-231, 72 h
# [4] = Cytotoxicity against human L02 cells measured after 72 hrs by MTT assay; format: toxicity, cell-based
# [5] = Cytotoxicity against human HEK293T cells measured after 72 hrs by MTT assay; format: toxicity, cell-based, HEK-293T
# [6] = biological target: T1, DNA topoisomerase 1 (Homo sapiens) (UniProt P11387); test: Inhibition of DNA topoisomerase I (unknown origin) relaxation activity at 100 uM incubated for 30 mins by chemiDoc system
# T1 sequence (whole entry): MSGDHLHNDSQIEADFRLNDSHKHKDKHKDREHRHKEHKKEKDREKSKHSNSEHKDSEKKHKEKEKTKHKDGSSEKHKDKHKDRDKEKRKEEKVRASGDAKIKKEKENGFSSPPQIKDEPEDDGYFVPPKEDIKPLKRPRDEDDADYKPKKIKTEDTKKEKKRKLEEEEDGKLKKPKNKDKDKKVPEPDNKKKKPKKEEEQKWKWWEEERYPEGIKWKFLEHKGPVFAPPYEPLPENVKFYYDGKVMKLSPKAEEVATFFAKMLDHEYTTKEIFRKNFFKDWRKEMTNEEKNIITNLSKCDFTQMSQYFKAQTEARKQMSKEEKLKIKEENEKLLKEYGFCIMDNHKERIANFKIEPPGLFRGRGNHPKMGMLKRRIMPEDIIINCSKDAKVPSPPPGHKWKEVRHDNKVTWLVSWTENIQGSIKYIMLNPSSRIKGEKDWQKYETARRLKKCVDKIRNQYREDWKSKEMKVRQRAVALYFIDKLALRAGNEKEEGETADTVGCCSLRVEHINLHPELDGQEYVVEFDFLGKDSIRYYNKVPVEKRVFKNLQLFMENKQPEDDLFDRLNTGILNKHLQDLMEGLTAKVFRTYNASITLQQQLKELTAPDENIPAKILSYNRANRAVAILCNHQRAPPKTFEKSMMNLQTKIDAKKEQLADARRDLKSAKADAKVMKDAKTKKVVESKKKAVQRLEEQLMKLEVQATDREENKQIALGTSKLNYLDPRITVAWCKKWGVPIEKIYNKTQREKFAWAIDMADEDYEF
# [7] = Selectivity index, ratio of IC50 for human HEK293T cells to IC50 for human A-375 cells; format: toxicity; details: HEK293T cells and A-375 cells, read-out: Ratio IC50
# [8] = In vivo acute toxicity in Balb/C mouse assessed as pathological damage in heart at 50 mg/kg, iv administered once per 2 days for 7 days measured 24 hrs after last dose by H and E staining method; format: organism-based; details: 168 h, time 7 day
# [9] = In vivo acute toxicity in Balb/C mouse assessed as pathological damage in liver at 50 mg/kg, iv administered once per 2 days for 7 days measured 24 hrs after last dose by H and E staining method; format: organism-based; details: 168 h, time 7 day
# [10] = In vivo acute toxicity in Balb/C mouse assessed as pathological damage in kidney at 50 mg/kg, iv administered once per 2 days for 7 days measured 24 hrs after last dose by H and E staining method; format: organism-based; details: 168 h, time 7 day
# MCF7 = test: Inhibition of colony formation in human MCF7 cells at 20 to 40 nM incubated for 48 hrs by crystal violet staining method; format: functional, cell-based; details: dose 20-40 nM
# A-375 [11] = test: Antimigratory activity in human A-375 cells assessed as reduction in cell migration at 10 to 40 nM incubated for 24 hrs by crystal violet staining method; format: functional, cell-based; details: dose 10-40 nM
# A-375 [12] = test: Induction of cell cycle arrest in human A-375 cells assessed as accumulation of cells at S phase at 80 nM incubated for 24 hrs by PI based flow cytometric analysis (RVB = 26.73%); format: functional
# A-375 [13] = test: Induction of cell cycle arrest in human A-375 cells assessed as accumulation of cells at G1 phase at 20 nM incubated for 24 hrs by PI based flow cytometric analysis (RVB = 52.94%); format: functional
# A-375 [14] = test: Induction of cell cycle arrest in human A-375 cells assessed as accumulation of cells at G1 phase at 40 nM incubated for 24 hrs by PI based flow cytometric analysis (RVB = 52.94%); format: functional
# A-375 [15] = test: Induction of cell cycle arrest in human A-375 cells assessed as accumulation of cells at G2 phase at 40 nM incubated for 24 hrs by PI based flow cytometric analysis (RVB = 20.34%); format: functional
# A-375 [16] = test: Induction of apoptosis in human A-375 cells at 40 nM measured after 24 hrs by Annexin V-FITC and DAPI staining based flow cytometric analysis; format: functional
# A-375 [17] = test: Induction of apoptosis in human A-375 cells assessed as increase in expression level of C-caspase-3 measured after 24 hrs by Western blotting analysis; format: functional, cell-based; details: dose 40-120 nM, DDE = dose-dependent effect
# A-375 [18] = test: Induction of apoptosis in human A-375 cells assessed as increase in expression level of C-caspase-8 measured after 24 hrs by Western blotting analysis; format: functional, cell-based; details: dose 40-120 nM, DDE = dose-dependent effect
# A-375 [19] = test: Induction of apoptosis in human A-375 cells assessed as increase in expression level of Bax measured after 24 hrs by Western blotting analysis; format: functional, cell-based; details: dose 40-120 nM, DDE = dose-dependent effect
# [20] = Clearance in Kunming mouse plasma at 10 mg/kg, iv administered as single dose measured after 5 to 360 mins by HPLC analysis; format: ADME, organism-based; details: time 5-360 min
# [21] = Toxicity in BALB/c nude mouse xenografted with human A-375 cells assessed as body weight loss treated after 7 days of tumor implantation on right flank subcutaneously at 10 to 20 mg/kg, iv administered once per 2 days for 14 days measured once every two days; format: organism-based; details: in vivo, 336 h, dose 10-20 mg/kg, time 14 day
# A-375 [22] = test: In vivo antitumor activity against human A-375 cells xenografted in BALB/c nude mouse assessed as decrease in tumor volume treated after 7 days of tumor implantation on right flank subcutaneously at 10 to 20 mg/kg, iv administered once per 2 days for 14 days measured once every two days; format: functional, organism-based; details: dose 10-20 mg/kg, time 14.0 day
# [23] = Toxicity in BALB/c nude mouse xenografted with human A-375 cells assessed as tolerability treated after 7 days of tumor implantation on right flank subcutaneously at 20 mg/kg, iv administered once per 2 days for 14 days measured once every two days; format: organism-based; details: in vivo, 336 h, time 14 day
# A-375 [24] = test: In vivo induction of apoptosis in human A-375 cells xenografted in BALB/c nude mouse assessed as increase in C-caspase-3 level treated after 7 days of tumor implantation on right flank subcutaneously at 10 to 20 mg/kg, iv administered once per 2 days for 14 days by measuring TUNEL positive cells under a light microscope; format: functional, organism-based; details: dose 10-20 mg/kg, time 14.0 day
compound,measurement,setting,value
O=C1c2c[n+]([O-])c3ccccc3c2C(=O)c2c1c1ccccc1n2Cc1cn([C@@H]2C[C@H](O)[C@@H](CO)O2)nn1,Activity,Calf thymus DNA,44%
same,Activity,A-375 [1],38.36%
same,Vd,[2],0.234 L/kg
same,AUC,[3],48000 ng·h/mL
same,IC50,MDA-MB-231,130 nM
same,IC50 at 72 h,[4],630 nM
same,IC50 at 72 h,[5],820 nM
same,inhibition,[6],Active
same,selectivity ratio,[7],40
same,Activity,[8],Non-Toxic
same,Activity,[9],Non-Toxic
same,Activity,[10],Non-Toxic
same,inhibition,MCF7,Active
same,Activity,A-375 [11],Active
same,Activity,A-375 [12],58.13%
same,Activity,A-375 [13],32.45%
same,Activity,A-375 [14],28.94%
same,Activity,A-375 [15],27.87%
same,Activity,A-375 [16],23.26%
same,Activity,A-375 [17],Dde
same,Activity,A-375 [18],Dde
same,Activity,A-375 [19],Dde
same,clearance,[20],1 mL/min/kg
same,Activity,[21],Non-Toxic
same,Activity,A-375 [22],Active
same,Activity,[23],Non-Toxic
same,Activity,A-375 [24],Active
